Experiments:
[1] = system: Mecp2 conditional mutant mice; test: Tactile PPI performance in Mecp2 conditional mutant mice; format: in vivo; conditions: 30 minutes following administration of 2 mg/kg, versus saline
Procedure: (§1) Tactile PPI performance in Mecp2 or Shank3 conditional mutant mice, and their control littermates, 30 minutes following administration of either saline or 2 mg/kg compound 5.

[2] = system: Shank3 conditional mutant mice; test: Tactile PPI performance in Shank3 conditional mutant mice; format: in vivo; conditions: 30 minutes following administration of 2 mg/kg, versus saline
Procedure: as §1

ASD mouse models = conditions: range of ASD mouse models (Orefice et al., 2019, Cell 178, 867-886); cited from earlier work

Structure (SMILES): NC1C=C(C(=O)O)CCC1 (stereo not drawn) [compound 5, 3-aminocyclohex-1-ene-1-carboxylic acid]
- hairy skin hypersensitivity (tactile PPI performance) [1]: reduces hairy skin hypersensitivity
- hairy skin hypersensitivity (tactile PPI performance) [2]: reduces hairy skin hypersensitivity

Structure (SMILES): Nc1[nH]c(=O)nc2nc[nH]c12 [isoguanine]
- anxiety (ASD mouse models): useful to reduce
